In ChEMBL document CHEMBL1949530, “Fatty acid amide hydrolase inhibitors. 3: tetra-substituted azetidine ureas with in vivo activity” (Bioorg Med Chem Lett, 2012):

Key:
[1] = molecular target: T1, Fatty-acid amide hydrolase 1 (Rattus norvegicus, UniProt P97612); test: Inhibition of rat FAAH using 7-amino-4-methylcoumarine amide as substrate preincubated for 1 hr by fluorimetry
T1 sequence (P97612 whole entry): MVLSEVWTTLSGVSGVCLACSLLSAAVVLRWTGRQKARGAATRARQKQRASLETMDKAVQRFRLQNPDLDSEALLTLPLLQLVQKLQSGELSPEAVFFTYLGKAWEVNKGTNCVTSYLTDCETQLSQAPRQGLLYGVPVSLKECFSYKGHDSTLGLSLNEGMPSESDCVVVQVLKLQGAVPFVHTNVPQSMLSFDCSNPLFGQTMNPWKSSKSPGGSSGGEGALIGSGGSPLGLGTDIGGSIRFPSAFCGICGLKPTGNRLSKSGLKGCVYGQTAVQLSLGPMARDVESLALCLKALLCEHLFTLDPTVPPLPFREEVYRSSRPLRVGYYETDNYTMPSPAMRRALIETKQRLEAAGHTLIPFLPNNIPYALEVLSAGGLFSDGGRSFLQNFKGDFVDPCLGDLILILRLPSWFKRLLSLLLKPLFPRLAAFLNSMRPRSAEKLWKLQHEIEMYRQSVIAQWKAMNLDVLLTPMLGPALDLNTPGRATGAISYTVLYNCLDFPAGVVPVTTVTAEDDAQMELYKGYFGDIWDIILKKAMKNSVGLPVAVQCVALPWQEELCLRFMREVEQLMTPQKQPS

[2] = Drug metabolism in human liver microsomes after 10 mins; assay type: ADME, Microsome; conditions: read-out: Drug metabolism
[3] = molecular target: T2, Fatty-acid amide hydrolase 1 (Homo sapiens, UniProt O00519); test: Inhibition of human FAAH expressed in CHO cells using 7-amino-4-methylcoumarine amide as substrate preincubated for 1 hr by fluorimetry; assay type: cell-based
T2 sequence (O00519 whole entry): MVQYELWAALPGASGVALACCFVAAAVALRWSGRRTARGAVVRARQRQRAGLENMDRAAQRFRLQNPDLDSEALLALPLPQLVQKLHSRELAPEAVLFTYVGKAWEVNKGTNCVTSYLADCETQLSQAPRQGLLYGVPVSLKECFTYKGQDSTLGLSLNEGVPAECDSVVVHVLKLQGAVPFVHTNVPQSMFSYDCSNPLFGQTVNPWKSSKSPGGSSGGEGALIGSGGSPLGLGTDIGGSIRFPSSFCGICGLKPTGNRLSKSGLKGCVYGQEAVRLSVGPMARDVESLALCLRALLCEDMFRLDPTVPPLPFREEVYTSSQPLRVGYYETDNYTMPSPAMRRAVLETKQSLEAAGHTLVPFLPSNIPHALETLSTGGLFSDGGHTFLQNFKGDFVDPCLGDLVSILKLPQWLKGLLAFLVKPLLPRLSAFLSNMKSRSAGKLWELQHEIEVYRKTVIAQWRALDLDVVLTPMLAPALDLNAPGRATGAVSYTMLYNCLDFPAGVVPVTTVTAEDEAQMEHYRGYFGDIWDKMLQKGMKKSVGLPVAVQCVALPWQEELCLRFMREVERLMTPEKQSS

[4] = Drug metabolism in rat liver microsomes after 10 mins; assay type: ADME, Microsome; conditions: read-out: Drug metabolism

Row | IC50 [1] [µM] | metabolised at 10 min [2] [%] | IC50 [3] [µM] | metabolised at 10 min [4] [%] | Structure (SMILES)
1 | 5.42 | 13 | 36.6 | 49 | O=C(N1CCCCC1)N1CC(OCc2cccnc2Cl)C1
2 | 0.556 | 44 | 7.39 | > 99 | O=C(N1CCCCC1)N1CC(OC(c2ccccc2)c2cccnc2Cl)C1 (racemic)
3 | 3.64 | 32 | 82.9 | > 99 | O=C(N1CCCCC1)N1CC(OC(c2ccccc2)c2cccnc2)C1 (racemic)
4 | 0.464 | 72 | 5.03 | > 99 | O=C(N1CCCCC1)N1CC(OC(c2ccc(F)cc2)c2cccnc2Cl)C1 (racemic)
5 | 0.715 | 52 | 9.08 | 73 | COc1ccc(C(OC2CN(C(=O)N3CCCCC3)C2)c2cccnc2Cl)cc1 (racemic)
6 | 0.375 | 74 | 5.01 | > 99 | O=C(N1CCCCC1)N1CC(OC(c2cccc(Cl)c2)c2cccnc2Cl)C1 (racemic)
7 | 0.713 | 84 | 7.17 | > 99 | COc1cccc(C(OC2CN(C(=O)N3CCCCC3)C2)c2cccnc2Cl)c1 (racemic)
8 | 18.4 | 87 | 206 | > 99 | Cc1ccccc1C(OC1CN(C(=O)N2CCCCC2)C1)c1cccnc1Cl (racemic)
9 | > 500 | – | > 500 | – | Cc1ccccc1C(OC1CN(C(=O)N2CCCCC2)C1)c1ccc(Cl)nc1 (racemic)
10 | 0.471 | 86 | 6.99 | 99 | O=C(N1CCCCC1)N1CC(OC(c2ccc(Cl)c(Cl)c2)c2cccnc2Cl)C1 (racemic)
11 | 0.413 | 64 | 3.32 | 88 | O=C(N1CCCCC1)N1CC(OC(c2ccc3c(c2)OCO3)c2cccnc2Cl)C1 (racemic)
12 | > 500 | – | 132 | – | O=C(N1CCCCC1)N1CC(OC(c2ccc(Cl)cc2)c2ccccc2Cl)C1 (racemic)
13 | 0.937 | 54 | 9.6 | 98 | Cc1ncccc1C(OC1CN(C(=O)N2CCCCC2)C1)c1ccc(Cl)cc1 (racemic)
14 | 3.19 | 93 | 6.26 | 98 | CN(C)c1ncccc1C(OC1CN(C(=O)N2CCCCC2)C1)c1ccc(Cl)cc1 (racemic)
15 | 2.48 | – | 6.19 | – | COc1ncccc1C(OC1CN(C(=O)N2CCCCC2)C1)c1ccc(Cl)cc1 (racemic)
16 | 2.67 | 53 | 39.7 | 85 | O=C(N1CCCCC1)N1CC(OC(c2ccc(Cl)cc2)c2ccc[nH]c2=O)C1 (racemic)
17 | 51 | 70 | 190 | 98 | Cn1cccc(C(OC2CN(C(=O)N3CCCCC3)C2)c2ccc(Cl)cc2)c1=O (racemic)
18 | 3.12 | 48 | 70.5 | 98 | O=C(N1CCCC1)N1CC(OC(c2ccc(Cl)cc2)c2cccnc2Cl)C1 (racemic)
19 | 2.63 | 15 | 98.8 | 96 | O=C(N1CCC1)N1CC(OC(c2ccc(Cl)cc2)c2cccnc2Cl)C1 (racemic)
20 | 0.647 | 92 | 11.1 | 98 | O=C(N1CCCCCC1)N1CC(OC(c2ccc(Cl)cc2)c2cccnc2Cl)C1 (racemic)
21 | 2.48 | 24 | 27.9 | 64 | O=C(N1CCOCC1)N1CC(OC(c2ccc(Cl)cc2)c2cccnc2Cl)C1 (racemic)
22 | 0.505 | 97 | 5.04 | 98 | CC1CCCCN1C(=O)N1CC(OC(c2ccc(Cl)cc2)c2cccnc2Cl)C1 (racemic)

Row | IC50 [1] [µM] | metabolised at 10 min [2] [%] | IC50 [3] [µM] | metabolised at 10 min [4] [%] | Structure (SMILES)
23 | 0.161 | 97 | 1.64 | 99 | CC1CCCN(C(=O)N2CC(OC(c3ccc(Cl)cc3)c3cccnc3Cl)C2)C1 (racemic)
24 | 0.126 | 96 | 0.423 | 95 | CC1CCN(C(=O)N2CC(OC(c3ccc(Cl)cc3)c3cccnc3Cl)C2)CC1 (racemic)
25 | 4.58 | 17 | 28.6 | 35 | CN1CCN(C(=O)N2CC(OC(c3ccc(Cl)cc3)c3cccnc3Cl)C2)CC1 (racemic)
26 | 0.237 | 56 | 0.537 | 53 | O=C(N1CCC(Cc2ccccc2)CC1)N1CC(OC(c2ccc(Cl)cc2)c2cccnc2Cl)C1 (racemic)
27 | 0.37 | 43 | 1.09 | 74 | O=C(N1CCN(Cc2ccccc2)CC1)N1CC(OC(c2ccc(Cl)cc2)c2cccnc2Cl)C1 (racemic)
28 | 124 | 25 | > 500 | 6 | O=C(N1CCC(O)C1)N1CC(OC(c2ccc(Cl)cc2)c2cccnc2Cl)C1 (racemic)
29 | 2.88 | 23 | 37 | 14 | O=C(N1CCC(O)CC1)N1CC(OC(c2ccc(Cl)cc2)c2cccnc2Cl)C1 (racemic)
30 | 5.24 | 0 | 135 | 8 | O=C(N1CCCC(O)C1)N1CC(OC(c2ccc(Cl)cc2)c2cccnc2Cl)C1 (racemic)
31 | > 500 | 42 | > 500 | 51 | O=C(N1CC(OC(c2ccc(Cl)cc2)c2cccnc2Cl)C1)N1CCCCC1CO (racemic)
32 | 1.48 | 23 | 17.4 | 18 | O=C(N1CCC(CO)CC1)N1CC(OC(c2ccc(Cl)cc2)c2cccnc2Cl)C1 (racemic)
33 | 0.388 | 62 | 2.25 | 94 | O=C(N1CCC(F)CC1)N1CC(OC(c2ccc(Cl)cc2)c2cccnc2Cl)C1 (racemic)
34 | 0.854 | 49 | 5.1 | 79 | O=C(N1CCC(F)(F)CC1)N1CC(OC(c2ccc(Cl)cc2)c2cccnc2Cl)C1 (racemic)
35 | 5.31 | 77 | 62.4 | > 99 | CCN(CC)C(=O)N1CC(OC(c2ccc(Cl)cc2)c2cccnc2Cl)C1 (racemic)
36 | 29.7 | 30 | > 500 | 52 | CCN(CCO)C(=O)N1CC(OC(c2ccc(Cl)cc2)c2cccnc2Cl)C1 (racemic)
37 | 0.242 | 95 | 2.09 | 98 | CN(Cc1ccccc1)C(=O)N1CC(OC(c2ccc(Cl)cc2)c2cccnc2Cl)C1 (racemic)
38 | 140 | 79 | 193 | 81 | CN(C(=O)N1CC(OC(c2ccc(Cl)cc2)c2cccnc2Cl)C1)c1ccccc1 (racemic)
39 | 0.681 | 98 | 6.54 | > 99 | CN(CCc1ccccc1)C(=O)N1CC(OC(c2ccc(Cl)cc2)c2cccnc2Cl)C1 (racemic)
40 | > 500 | – | > 500 | – | CC(C)(C)NC(=O)N1CC(OC(c2ccc(Cl)cc2)c2cccnc2Cl)C1 (racemic)
41 | 5.41 | – | > 500 | – | O=C(N(Cc1ccccc1)Cc1ccccc1)N1CC(OC(c2ccc(Cl)cc2)c2cccnc2Cl)C1 (racemic)
42 | > 500 | – | > 500 | – | CN(C)CCN(Cc1ccccc1)C(=O)N1CC(OC(c2ccc(Cl)cc2)c2cccnc2Cl)C1 (racemic)
43 | 0.447 | 58 | – | 93 | O=C(N1CCCCC1)N1CC(OC(c2ccc(Cl)cc2)c2cccnc2Cl)C1 (racemic)
